Laboratory results: US20130303575A1, “ADMINISTRATION OF AN INHIBITOR OF HDAC” (priority 2007, published 2013)

How the values were obtained:
[1] = test system: Histone H3 and H4 acetylation; assay: Histone H3 and H4 acetylation in PBMCs by immunohistochemical detection (Example 1); assay type: in vivo, human; conditions: compared with pretreatment, preliminary analyses
Method: (§1) Histone H3 and H4 acetylation was analyzed in peripheral blood mononuclear cells (PBMCs) by immunohistochemical detection.

plasma proteins = assay: Plasma protein binding; assay type: in vitro ADME
[2] = Plasma pharmacokinetics of oral SNDX-275 in adults with advanced acute leukemias (Example 3); assay type: in vivo, human; conditions: for AUC / Cmax / half-life / Tmax: human, plasma, oral; for AUC: read-out: AUC (mean and SD); for Cmax: read-out: Cmax (mean and SD)
Method: Separated plasma was immediately frozen on dry ice and then stored at -70° C. until analysis. […] The pharmacokinetic parameters of interest included peak plasma concentration (Cmax), time to peak concentration (Tmax), area under the plasma concentration versus time curve extrapolated to infinity (AUC), apparent oral clearance (CL/F), and the terminal half-life (T1/2, z). […] The influence of the dose level on CL/F was evaluated using the Kruskal-Wallis' one-way analysis of ranks test, followed by the Dunn's multiple comparison test for identifying statistically significant group differences. These calculations were preformed with the software package NCSS version 2001 (Number Cruncher Statistical Systems, […], Utah).

acetylated histone H3 = assay: Immunocytochemical analysis of acetylated histone H3 in PBMCs (Example 2); assay type: in vivo, human
Method: Louis, Mo.) for 10 minutes at room temperature, rinsed quickly with water, air-dried, mounted using SlowFade (Molecular Probes), and imaged using a Zeiss Axiophot microscope interfaced with a CCD camera (Optronics Engineering, Goleta, Calif.). Positive controls were prepared by exposing healthy donor PBMCs to SNDX-275 in vitro. Buffy coats, provided anonymously as a byproduct of whole-blood donations from paid, healthy volunteer donors through an international review board-approved protocol, were centrifuged on Ficoll-Paque Plus. […] Cells were processed for histone hyperacetylation in the same manner as patient samples. Images of PBMCs stained for acetylated histone H3 were imported into the Openlab image analysis program (Improvision, Coventry, United Kingdom) and histone acetylation levels were assessed using the Openlab quantification software.

[3] = Plasma pharmacokinetics of oral SNDX-275 in patients with advanced and refractory solid tumors or lymphoma (Example 2); assay type: in vivo; conditions: human; for Cmax / AUC / Tmax / half-life: plasma, oral
Method: The initial dosing schedule was daily oral administration for 28 days and 14-day recovery period, constituting a 42-day cycle. […] Samples were immediately centrifuged at 3000 g for 10 minutes at 4° C. and then plasma was divided into two aliquots of at least 1 mL and frozen at −70° C. until the time of analysis. Plasma samples were assayed by a specific and sensitive high-performance liquid chromatographic assay with mass-spectrometric detection. […] The pharmacokinetic parameters of interest included peak plasma concentration (Cmax), time to peak concentration (Tmax), area under the plasma concentration versus time curve extrapolated to infinity (AUC), apparent oral clearance (CL/F), and the terminal half-life (T1/2, z). The peak plasma concentrations (Cmax) and the time to peak plasma concentrations (Tmax) were the observed values. The area under the plasma concentration versus time curve (AUC) was calculated using the linear trapezoidal method from time zero to the time of the final quantifiable concentration (AUCtf). The AUC was then extrapolated to infinity (AUCinf) by dividing the last measured concentration by the rate constant of the terminal phase (k), which was determined by linear-regression analysis of the final three or four time points of the ling-linear concentration time plot. […] Deviations of β from 1 correspond to deviations from ideal dose proportionality. […] All PK data are presented as mean±SD, except where otherwise indicated. […] One-way analysis of variance was performed to compare mean values using a two-sided Dunnett's test. Statistical calculations were performed using the Number Cruncher Statistical System 2001 series (J. L. Hintze, Kaysville, Utah). The cut-off for statistical significance was considered at P<0.05.

clinical = conditions: human, in vivo
Method: as §1
Blood samples (5 ml) were taken at the following times:
Blood was centrifuged for 10 minutes at 2000 g at room temperature within approximately 30 minutes after withdrawal; plasma was separated and stored at −18° C. to −25° C. until analysis.

[4] = 4 mg/m2, 4 mg/m^2, first dose, with food, 7 patients

## Nc1ccccc1NC(=O)c1ccc(CNC(=O)OCc2cccnc2)cc1 [SNDX-275, N-(2-aminophenyl) 4-[N-(pyrid-3-yl)methyloxycarbonylaminomethyl]benzamide]
[1]
  histone H3 and H4 acetylation in PBMCs: increase in histone H3 and H4 acetylation
Plasma proteins
  binding to albumin versus other plasma proteins: no greater binding affinity to albumin than other plasma proteins
  protein bound: ≈ 80%
[2]; 4 to 10 mg/m^2
  AUC with increasing doses: reached a plateau
[2]; All doses, n = 27
  T1/2 (mean and SD), terminal half-life: 36 h
[2]; [4]
  AUC: 208 ± 86.1 ng·h/mL
  Cmax: 4.74 ± 3.41 ng/mL
[2]; 4 mg/m2, 4 mg/m^2, first dose, with food, 7 patients, read-out: T1/2 (mean and SD) (converted)
  half-life: 36.6 ± 18.6 h
[2]; 4 mg/m2, 4 mg/m^2, first dose, with food, 7 patients, read-out: Tmax (median)
  Tmax: 12 h
[2]; 6 mg/m2, 6 mg/m^2, first dose, with food, 7 patients
  Cmax: 4.87 ± 1.76 ng/mL
[2]; 6 mg/m2, 6 mg/m^2, first dose, with food, 7 patients, read-out: Tmax (median)
  Tmax: 12 h
[2]; 6 mg/m2, 6 mg/m^2, first dose, with food, n = 5
  AUC: 351 ng·h/mL
[2]; 6 mg/m2, 6 mg/m^2, first dose, with food, n = 5, read-out: T1/2 (mean and SD) (converted)
  half-life: 43.8 ± 16.4 h
[2]; 8 mg/m2, 8 mg/m^2, first dose, with food, 15 patients
  Cmax: 53.1 ± 92.4 ng/mL
[2]; 8 mg/m2, 8 mg/m^2, first dose, with food, 15 patients, read-out: Tmax (median)
  Tmax: 1 h
[2]; 8 mg/m2, 8 mg/m^2, first dose, with food, n = 10
  AUC: 328 ng·h/mL
[2]; 8 mg/m2, 8 mg/m^2, first dose, with food, n = 10, read-out: T1/2 (mean and SD) (converted)
  half-life: 33.4 ± 12.7 h
[2]; 10 mg/m2, 10 mg/m^2, first dose, with food, 6 patients
  Cmax: 53.2 ± 58 ng/mL
[2]; 10 mg/m2, 10 mg/m^2, first dose, with food, 6 patients, read-out: Tmax (median)
  Tmax: 1 h
[2]; 10 mg/m2, 10 mg/m^2, first dose, with food, n = 5
  AUC: 312 ng·h/mL
[2]; 10 mg/m2, 10 mg/m^2, first dose, with food, n = 5, read-out: T1/2 (mean and SD) (converted)
  half-life: 30.4 ± 13.9 h
[2]; All doses, 35 patients, read-out: Tmax (median)
  Tmax: ~2 h
[2]; All doses, n = 27, read-out: T1/2 (mean and SD), terminal half-life (converted)
  half-life: 35.6 ± 15 h
[2]; all dose levels, read-out: range of Tmax values
  Tmax: 0.5 to 36 h
Acetylated histone H3; apparent at all dose levels, immunofluoresence analysis
  histone H3 acetylation in peripheral-blood mononuclear-cells: Increased histone H3 acetylation
Acetylated histone H3; daily schedule patients
  histone H3 and H4 acetylation (HDAC inhibition): HDAC inhibition occurred after one dose
[3]; in vivo
  interpatient variability in clearance, comparison for body-surface area correction: 39.5%
[3]; 2 mg/m2, 2 mg/m^2, q14-day, first dose, fed, 3 patients
  Cmax: 1.72 ng/mL
[3]; 2 mg/m2, 2 mg/m^2, q14-day, first dose, fed, 3 patients, read-out: AUC Mean
  AUC: 196 ng·h/mL
[3]; 2 mg/m2, 2 mg/m^2, q14-day, first dose, fed, 3 patients, read-out: Tmax Median
  Tmax: 6 h
[3]; 2 mg/m2, 2 mg/m^2, q14-day, first dose, fed, 3 patients, read-out: t1/2 Mean (converted)
  half-life: 80.2 h
[3]; 4 mg/m2, 4 mg/m^2, q14-day, first dose, fed, 3 patients
  Cmax: 4.84 ng/mL
[3]; 4 mg/m2, 4 mg/m^2, q14-day, first dose, fed, 3 patients, read-out: AUC Mean
  AUC: 392 ng·h/mL
[3]; 4 mg/m2, 4 mg/m^2, q14-day, first dose, fed, 3 patients, read-out: Tmax Median
  Tmax: 6 h
[3]; 4 mg/m2, 4 mg/m^2, q14-day, first dose, fed, 3 patients, read-out: t1/2 Mean (converted)
  half-life: 50.5 h
[3]; 6 mg/m2, 6 mg/m^2, q14-day, first dose, fed, 6 patients
  Cmax: 9.59 ng/mL
[3]; 6 mg/m2, 6 mg/m^2, q14-day, first dose, fed, 6 patients, read-out: AUC Mean
  AUC: 493 ng·h/mL
[3]; 6 mg/m2, 6 mg/m^2, q14-day, first dose, fed, 6 patients, read-out: Tmax Median
  Tmax: 2 h
[3]; 6 mg/m2, 6 mg/m^2, q14-day, first dose, fed, 6 patients, read-out: t1/2 Mean (converted)
  half-life: 52.8 h
[3]; 8 mg/m2, 8 mg/m^2, q14-day, first dose, fed, 5 patients
  Cmax: 15.5 ng/mL
[3]; 8 mg/m2, 8 mg/m^2, q14-day, first dose, fed, 5 patients, read-out: AUC Mean
  AUC: 358 ng·h/mL
[3]; 8 mg/m2, 8 mg/m^2, q14-day, first dose, fed, 5 patients, read-out: Tmax Median
  Tmax: 2 h
[3]; 8 mg/m2, 8 mg/m^2, q14-day, first dose, fed, 5 patients, read-out: t1/2 Mean (converted)
  half-life: 39.7 h
[3]; 10 mg/m2, 10 mg/m^2, q14-day, first dose, fed, 6 patients
  Cmax: 45.1 ng/mL
[3]; 10 mg/m2, 10 mg/m^2, q14-day, first dose, fed, 6 patients, read-out: AUC Mean
  AUC: 529 ng·h/mL
[3]; 10 mg/m2, 10 mg/m^2, q14-day, first dose, fed, 6 patients, read-out: Tmax Median
  Tmax: 1.5 h
[3]; 10 mg/m2, 10 mg/m^2, q14-day, first dose, fed, 6 patients, read-out: t1/2 Mean (converted)
  half-life: 51.6 h
[3]; 12 mg/m2, 12 mg/m^2, q14-day, first dose, fed, 4 patients
  Cmax: 132 ng/mL
[3]; 12 mg/m2, 12 mg/m^2, q14-day, first dose, fed, 4 patients, read-out: AUC Mean
  AUC: 680 ng·h/mL
[3]; 12 mg/m2, 12 mg/m^2, q14-day, first dose, fed, 4 patients, read-out: Tmax Median
  Tmax: 0.5 h
[3]; 12 mg/m2, 12 mg/m^2, q14-day, first dose, fed, 4 patients, read-out: t1/2 Mean (converted)
  half-life: 45 h
[3]; all doses 2 to 12 mg/m^2, q14-day, read-out: Tmax Grand median
  Tmax: 1.75 h
[3]; all doses 2 to 12 mg/m^2, q14-day, read-out: t1/2 Grand mean (apparent terminal half-life) (converted)
  half-life: 51.7 ± 21.6 h
[3]; bi-exponential decline, read-out: T1/2 in plasma (converted)
  half-life: ~50 h
[3]; half-life of SNDX-275 in humans, preliminary PK analysis
  half-life: 39 to 80 h
[3]; in some patients, read-out: earliest Tmax observed (converted)
  Tmax: 0.5 h
[3]; n=4, FIG. 6, read-out: mean AUC in patients experiencing DLTs
  AUC: 517 ± 276 ng·h/mL
[3]; n=23, FIG. 6, read-out: mean AUC in patients without DLT
  AUC: 280 ± 121 ng·h/mL
[3]; q14-day schedule, read-out: median Tmax
  Tmax: ~2 h
clinical
  Tmax: 0.5 to 2.0 h
  apparent drug clearance (CL/F): low
clinical; 2 mg/m2
  AUC: 107 ng·h/mL
clinical; 2 mg/m2, AUC(0-48)
  AUC(0-t): 60.1 ng·h/mL
clinical; 2 mg/m2, Cmax
  Cmax: 25.3 ng/mL
clinical; 2 mg/m2, Mean AUC
  AUC: 135 ng·h/mL
clinical; 2 mg/m2, Mean t1/2
  half-life: 54 h
clinical; 2 mg/m2, Median Tmax
  Tmax: 0.6 h
clinical; 2 mg/m2, T1/2
  half-life: 100 h
clinical; 2 mg/m2, Tmax
  Tmax: 0.5 h
clinical; 4 mg/m2, Mean AUC
  AUC: 323 ng·h/mL
clinical; 4 mg/m2, Mean t1/2
  half-life: 87.9 h
clinical; 4 mg/m2, Median Tmax
  Tmax: 0.5 h
clinical; 5 mg/m2
  T1/2: 77 h
clinical; 5 mg/m2, AUC
  AUC: 432 ng·h/mL
clinical; 5 mg/m2, AUC(0-48)
  AUC(0-t): 153 ng·h/mL
clinical; 5 mg/m2, Cmax
  Cmax: 72 ng/mL
clinical; 5 mg/m2, Mean AUC
  AUC: 494 ng·h/mL
clinical; 5 mg/m2, Mean Cmax
  Cmax: 77.3 ng/mL
clinical; 5 mg/m2, Mean t1/2
  half-life: 133 h
clinical; 5 mg/m2, Median Tmax
  Tmax: 0.5 h
clinical; 5 mg/m2, T1/2
  half-life: 112 h
clinical; 6 mg/m2
  Mean CL/F: 16.7 L/h
clinical; 6 mg/m2, AUC
  AUC: 412 ng·h/mL
clinical; 6 mg/m2, AUC(0-48)
  AUC(0-t): 170 ng·h/mL
clinical; 6 mg/m2, Mean AUC
  AUC: 459 ng·h/mL
clinical; 6 mg/m2, Mean Cmax
  Cmax: 37.3 ng/mL
clinical; 6 mg/m2, Mean t1/2
  half-life: 107 h
clinical; 6 mg/m2, Median Tmax
  Tmax: 1 h
clinical; 6 mg/m2, T1/2
  half-life: 102 h
clinical; T1/2
  half-life: ~100 h
clinical; Tmax
  Tmax: ≤ 1 h
